In patent US20180027748A1, “METHOD FOR PRODUCING METABOLITE CAPABLE OF IMPROVING DROUGHT TOLERANCE USING MICROORGANISM, AND METHOD FOR IMPROVING DROUGHT TOLERANCE OF PLANT USING SAID METABOLITE” (priority 2015, published 2018):

Tested on: white radish seeds
Assay: Drought tolerance test on white radish after removal of aluminum foil
Type: in vivo
Conditions: foil removed, samples A/B/C 10/100/300 μg/mL·agar extract, D 1 μg/mL·agar ABA, dH2O control G 27%
Method: Samples A, B, and C were prepared containing, respectively, 10, 100, and 300 μg/mL·agar of the drought tolerance improving metabolite producing bacterium extract obtained by the method described above. The samples were each dispensed into 10 test tubes.
ABA standard samples D, E, and F were prepared containing, respectively, 1, 10, and 20 μg/mL·agar of abscisic acid (ABA) as a standard. The samples were each dispensed into 10 test tubes.
After a culture medium was prepared in each sample, one white radish seed was placed in each test tube. After each test tube was capped with aluminum foil, each seed was germinated in the dark.
Samples A to C, D and G prepared in test method 1 described above were subjected to a drought tolerance test after the aluminum foil was removed from each test tube.

CC1=CC(=O)CC(C)(C)C1(O)/C=C/C(C)=C\C(=O)O (stereo not shown) [Sample D, abscisic acid]
percentage of sound individuals (drought tolerance level): 66%
